Laboratory results taken from PubChem BioAssay AID504401 (The Scripps Research Institute Molecular Screening Center, 2011).
Active and inactive are the calls of the source. How the calls were made is not given here.

Tests used:
Assay in all cases: CYP450 and receptor off-target profile – biochemical, Ricerca HitProfilingScreen, selectivity assay for GPR7 antagonist project, late-stage follow-up (AID 504401)
Opiate mu (OP3, MOP) = conditions: Ricerca radioligand binding and CYP450 panel, at 10 µM, stronger effect = higher value
[1] = molecular target: Alpha-2A adrenergic receptor (Homo sapiens) (UniProt P08913); conditions: Ricerca radioligand binding and CYP450 panel; Adrenergic alpha2A; at 10 µM; stronger effect = higher value
Sequence of Alpha-2A adrenergic receptor (Homo sapiens) (P08913 whole entry, looked up): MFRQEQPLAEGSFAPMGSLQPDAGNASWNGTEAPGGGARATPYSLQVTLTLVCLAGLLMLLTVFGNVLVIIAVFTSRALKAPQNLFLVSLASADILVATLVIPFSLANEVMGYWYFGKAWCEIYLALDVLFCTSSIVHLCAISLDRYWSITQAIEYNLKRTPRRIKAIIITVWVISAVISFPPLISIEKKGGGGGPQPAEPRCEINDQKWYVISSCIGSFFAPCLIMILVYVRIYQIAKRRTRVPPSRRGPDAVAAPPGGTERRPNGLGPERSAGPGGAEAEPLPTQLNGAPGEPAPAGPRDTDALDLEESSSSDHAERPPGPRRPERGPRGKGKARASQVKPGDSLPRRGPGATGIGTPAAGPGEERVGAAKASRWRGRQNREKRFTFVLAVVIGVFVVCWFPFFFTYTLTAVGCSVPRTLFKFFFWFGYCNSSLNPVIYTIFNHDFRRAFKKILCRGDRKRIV

[2] = molecular target: 5-hydroxytryptamine receptor 2B (Homo sapiens) (UniProt P41595); conditions: Ricerca radioligand binding and CYP450 panel; Serotonin (5-Hydroxytryptamine) 5-HT2B; at 10 µM; stronger effect = higher value
Sequence of 5-hydroxytryptamine receptor 2B (Homo sapiens) (P41595 whole entry, looked up): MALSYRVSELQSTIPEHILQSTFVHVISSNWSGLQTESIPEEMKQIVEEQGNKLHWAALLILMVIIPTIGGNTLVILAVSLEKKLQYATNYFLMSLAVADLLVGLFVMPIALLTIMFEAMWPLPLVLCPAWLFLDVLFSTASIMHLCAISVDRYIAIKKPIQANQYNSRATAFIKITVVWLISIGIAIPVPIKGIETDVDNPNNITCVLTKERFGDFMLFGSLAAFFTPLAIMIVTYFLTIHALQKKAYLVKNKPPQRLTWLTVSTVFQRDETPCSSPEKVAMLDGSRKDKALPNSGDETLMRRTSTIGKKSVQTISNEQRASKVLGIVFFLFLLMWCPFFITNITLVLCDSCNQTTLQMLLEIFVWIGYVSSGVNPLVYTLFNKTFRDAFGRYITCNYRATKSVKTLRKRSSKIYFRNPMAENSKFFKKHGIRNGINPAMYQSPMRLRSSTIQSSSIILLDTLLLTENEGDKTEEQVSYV

Adrenergic alpha1A = conditions: Ricerca radioligand binding and CYP450 panel, at 10 µM, stronger effect = higher value
Adenosine A1 = conditions: Ricerca radioligand binding and CYP450 panel, at 10 µM, stronger effect = higher value
[3] = system: Norepinephrine Transporter (NET); conditions: Ricerca radioligand binding and CYP450 panel, at 10 µM, stronger effect = higher value
Cannabinoid CB1 = conditions: Ricerca radioligand binding and CYP450 panel, at 10 µM, stronger effect = higher value
[4] = molecular target: D(1A) dopamine receptor (Homo sapiens) (UniProt P21728); conditions: Ricerca radioligand binding and CYP450 panel; Dopamine D1; at 10 µM; stronger effect = higher value
Sequence of D(1A) dopamine receptor (Homo sapiens) (P21728 whole entry, looked up): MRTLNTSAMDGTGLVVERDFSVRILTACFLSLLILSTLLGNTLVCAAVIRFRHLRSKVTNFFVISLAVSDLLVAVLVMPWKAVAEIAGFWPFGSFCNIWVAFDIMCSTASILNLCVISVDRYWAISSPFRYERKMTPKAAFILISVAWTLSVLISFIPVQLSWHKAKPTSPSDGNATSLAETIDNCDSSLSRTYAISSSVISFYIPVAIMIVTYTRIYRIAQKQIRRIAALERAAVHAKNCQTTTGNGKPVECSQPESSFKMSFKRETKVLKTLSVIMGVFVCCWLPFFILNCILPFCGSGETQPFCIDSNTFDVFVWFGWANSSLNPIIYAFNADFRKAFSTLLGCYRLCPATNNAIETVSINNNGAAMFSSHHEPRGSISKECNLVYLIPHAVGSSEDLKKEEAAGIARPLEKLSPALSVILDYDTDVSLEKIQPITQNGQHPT

Histamine H1 = conditions: Ricerca radioligand binding and CYP450 panel, at 10 µM, stronger effect = higher value
Dopamine D2S = conditions: Ricerca radioligand binding and CYP450 panel, at 10 µM, stronger effect = higher value
[5] = molecular target: Muscarinic acetylcholine receptor M3 (Homo sapiens) (UniProt P20309); conditions: Ricerca radioligand binding and CYP450 panel, at 10 µM, stronger effect = higher value
[6] = molecular target: Cytochrome P450 1A2 (Homo sapiens) (UniProt P05177); conditions: Ricerca radioligand binding and CYP450 panel; CYP450 1A2; at 10 µM; stronger effect = higher value
Sequence of Cytochrome P450 1A2 (Homo sapiens) (P05177 whole entry, looked up): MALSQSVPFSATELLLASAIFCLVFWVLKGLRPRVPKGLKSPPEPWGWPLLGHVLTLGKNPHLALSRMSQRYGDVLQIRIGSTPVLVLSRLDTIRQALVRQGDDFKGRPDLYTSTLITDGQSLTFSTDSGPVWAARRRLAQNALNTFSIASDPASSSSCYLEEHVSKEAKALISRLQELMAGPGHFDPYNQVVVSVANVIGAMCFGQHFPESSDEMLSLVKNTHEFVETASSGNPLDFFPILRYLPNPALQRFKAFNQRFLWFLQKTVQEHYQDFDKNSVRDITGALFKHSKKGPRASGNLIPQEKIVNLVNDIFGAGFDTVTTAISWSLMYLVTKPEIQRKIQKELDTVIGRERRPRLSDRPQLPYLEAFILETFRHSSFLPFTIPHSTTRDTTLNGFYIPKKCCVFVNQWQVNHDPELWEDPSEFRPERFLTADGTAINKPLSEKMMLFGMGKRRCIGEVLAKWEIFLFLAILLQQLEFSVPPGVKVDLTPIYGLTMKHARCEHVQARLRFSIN

GABAA = conditions: Ricerca radioligand binding and CYP450 panel, central, at 10 µM, stronger effect = higher value
Calcium Channel L-Type = conditions: Ricerca radioligand binding and CYP450 panel, Dihydropyridine site, at 10 µM, stronger effect = higher value
Nicotinic Acetylcholine = conditions: Ricerca radioligand binding and CYP450 panel, at 10 µM, stronger effect = higher value
[7] = molecular target: Cytochrome P450 3A4 (Homo sapiens) (UniProt P08684); conditions: Ricerca radioligand binding and CYP450 panel; CYP450 3A4; at 10 µM; stronger effect = higher value
Sequence of Cytochrome P450 3A4 (Homo sapiens) (P08684 whole entry, looked up): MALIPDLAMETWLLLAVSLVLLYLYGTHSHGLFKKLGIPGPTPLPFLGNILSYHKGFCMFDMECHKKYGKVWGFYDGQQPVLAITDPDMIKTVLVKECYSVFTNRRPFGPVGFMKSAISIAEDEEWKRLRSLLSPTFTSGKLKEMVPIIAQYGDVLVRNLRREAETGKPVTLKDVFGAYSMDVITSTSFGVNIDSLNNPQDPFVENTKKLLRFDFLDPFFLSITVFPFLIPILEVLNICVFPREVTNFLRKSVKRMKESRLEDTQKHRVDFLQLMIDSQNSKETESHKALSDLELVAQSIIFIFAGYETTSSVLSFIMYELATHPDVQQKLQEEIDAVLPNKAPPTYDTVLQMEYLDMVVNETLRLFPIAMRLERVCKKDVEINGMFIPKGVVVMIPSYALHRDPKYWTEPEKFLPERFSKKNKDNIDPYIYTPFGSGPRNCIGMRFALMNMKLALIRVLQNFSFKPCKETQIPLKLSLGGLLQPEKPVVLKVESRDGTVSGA

[8] = molecular target: Cytochrome P450 2D6 (Homo sapiens) (UniProt P10635); conditions: Ricerca radioligand binding and CYP450 panel; CYP450 2D6; at 10 µM; stronger effect = higher value
Adrenergic alpha1B = conditions: Ricerca radioligand binding and CYP450 panel, at 10 µM, stronger effect = higher value
[9] = system: Alpha-2A adrenergic receptor (Homo sapiens) + Histamine H1 receptor (Homo sapiens) + Mu-type opioid receptor (Homo sapiens); conditions: Ricerca radioligand binding and CYP450 panel; at 10 µM; stronger effect = higher value
Adenosine A2A = conditions: Ricerca radioligand binding and CYP450 panel, at 10 µM, stronger effect = higher value
[10] = molecular target: Cytochrome P450 2C9 (Homo sapiens) (UniProt P11712); conditions: Ricerca radioligand binding and CYP450 panel; CYP450 2C9; at 10 µM; stronger effect = higher value
Sequence of Cytochrome P450 2C9 (Homo sapiens) (P11712 whole entry, looked up): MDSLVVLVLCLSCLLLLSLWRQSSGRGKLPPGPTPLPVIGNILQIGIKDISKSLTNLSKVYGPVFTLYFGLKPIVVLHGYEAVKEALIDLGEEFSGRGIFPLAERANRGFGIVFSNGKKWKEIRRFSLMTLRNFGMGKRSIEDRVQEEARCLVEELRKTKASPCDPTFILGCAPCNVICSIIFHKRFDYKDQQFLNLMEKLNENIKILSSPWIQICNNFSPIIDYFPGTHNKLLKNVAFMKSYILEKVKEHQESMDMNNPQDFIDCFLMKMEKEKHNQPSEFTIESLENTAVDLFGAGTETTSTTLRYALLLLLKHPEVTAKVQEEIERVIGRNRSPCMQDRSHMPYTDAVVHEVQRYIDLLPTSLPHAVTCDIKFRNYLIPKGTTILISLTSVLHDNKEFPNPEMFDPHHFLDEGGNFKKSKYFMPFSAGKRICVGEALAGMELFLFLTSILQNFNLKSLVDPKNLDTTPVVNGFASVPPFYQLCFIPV

Prostanoid EP4 = conditions: Ricerca radioligand binding and CYP450 panel, at 10 µM, stronger effect = higher value
[11] = molecular target: Beta-2 adrenergic receptor (Homo sapiens) (UniProt P07550); conditions: Ricerca radioligand binding and CYP450 panel; Adrenergic beta2; at 10 µM; stronger effect = higher value
Sequence of Beta-2 adrenergic receptor (Homo sapiens) (P07550 whole entry, looked up): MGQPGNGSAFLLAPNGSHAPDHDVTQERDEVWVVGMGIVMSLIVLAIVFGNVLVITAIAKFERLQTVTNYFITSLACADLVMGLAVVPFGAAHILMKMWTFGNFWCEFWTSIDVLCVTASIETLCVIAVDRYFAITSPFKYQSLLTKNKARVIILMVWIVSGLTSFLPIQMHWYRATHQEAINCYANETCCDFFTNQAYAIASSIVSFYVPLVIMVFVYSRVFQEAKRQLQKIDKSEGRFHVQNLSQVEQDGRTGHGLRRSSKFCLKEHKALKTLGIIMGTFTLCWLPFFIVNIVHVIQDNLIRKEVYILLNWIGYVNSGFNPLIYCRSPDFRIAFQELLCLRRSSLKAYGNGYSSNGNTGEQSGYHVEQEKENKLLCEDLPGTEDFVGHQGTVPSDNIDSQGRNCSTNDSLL

Glutamate NMDA = conditions: Ricerca radioligand binding and CYP450 panel, Phencyclidine site, at 10 µM, stronger effect = higher value
[12] = molecular target: Muscarinic acetylcholine receptor M2 (Homo sapiens) (UniProt P08172); conditions: Ricerca radioligand binding and CYP450 panel, at 10 µM, stronger effect = higher value
Sequence of Muscarinic acetylcholine receptor M2 (Homo sapiens) (P08172 whole entry, looked up): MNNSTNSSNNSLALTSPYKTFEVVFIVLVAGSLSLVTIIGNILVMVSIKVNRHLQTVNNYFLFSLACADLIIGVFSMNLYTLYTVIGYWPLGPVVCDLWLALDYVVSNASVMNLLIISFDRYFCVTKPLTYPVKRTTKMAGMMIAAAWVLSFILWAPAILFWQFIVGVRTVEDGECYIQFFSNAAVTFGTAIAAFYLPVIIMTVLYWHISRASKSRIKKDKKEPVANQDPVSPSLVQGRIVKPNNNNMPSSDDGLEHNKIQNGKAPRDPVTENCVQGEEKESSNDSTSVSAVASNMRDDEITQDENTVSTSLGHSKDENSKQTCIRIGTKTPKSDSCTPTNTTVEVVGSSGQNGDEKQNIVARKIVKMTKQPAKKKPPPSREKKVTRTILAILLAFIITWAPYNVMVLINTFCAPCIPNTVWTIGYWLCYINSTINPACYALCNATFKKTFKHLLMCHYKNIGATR

[13] = molecular target: Voltage-gated inwardly rectifying potassium channel KCNH2 (Homo sapiens) (UniProt Q12809); conditions: Ricerca radioligand binding and CYP450 panel; Potassium Channel hERG; at 10 µM; stronger effect = higher value
Sequence of Voltage-gated inwardly rectifying potassium channel KCNH2 (Homo sapiens) (Q12809 whole entry, looked up): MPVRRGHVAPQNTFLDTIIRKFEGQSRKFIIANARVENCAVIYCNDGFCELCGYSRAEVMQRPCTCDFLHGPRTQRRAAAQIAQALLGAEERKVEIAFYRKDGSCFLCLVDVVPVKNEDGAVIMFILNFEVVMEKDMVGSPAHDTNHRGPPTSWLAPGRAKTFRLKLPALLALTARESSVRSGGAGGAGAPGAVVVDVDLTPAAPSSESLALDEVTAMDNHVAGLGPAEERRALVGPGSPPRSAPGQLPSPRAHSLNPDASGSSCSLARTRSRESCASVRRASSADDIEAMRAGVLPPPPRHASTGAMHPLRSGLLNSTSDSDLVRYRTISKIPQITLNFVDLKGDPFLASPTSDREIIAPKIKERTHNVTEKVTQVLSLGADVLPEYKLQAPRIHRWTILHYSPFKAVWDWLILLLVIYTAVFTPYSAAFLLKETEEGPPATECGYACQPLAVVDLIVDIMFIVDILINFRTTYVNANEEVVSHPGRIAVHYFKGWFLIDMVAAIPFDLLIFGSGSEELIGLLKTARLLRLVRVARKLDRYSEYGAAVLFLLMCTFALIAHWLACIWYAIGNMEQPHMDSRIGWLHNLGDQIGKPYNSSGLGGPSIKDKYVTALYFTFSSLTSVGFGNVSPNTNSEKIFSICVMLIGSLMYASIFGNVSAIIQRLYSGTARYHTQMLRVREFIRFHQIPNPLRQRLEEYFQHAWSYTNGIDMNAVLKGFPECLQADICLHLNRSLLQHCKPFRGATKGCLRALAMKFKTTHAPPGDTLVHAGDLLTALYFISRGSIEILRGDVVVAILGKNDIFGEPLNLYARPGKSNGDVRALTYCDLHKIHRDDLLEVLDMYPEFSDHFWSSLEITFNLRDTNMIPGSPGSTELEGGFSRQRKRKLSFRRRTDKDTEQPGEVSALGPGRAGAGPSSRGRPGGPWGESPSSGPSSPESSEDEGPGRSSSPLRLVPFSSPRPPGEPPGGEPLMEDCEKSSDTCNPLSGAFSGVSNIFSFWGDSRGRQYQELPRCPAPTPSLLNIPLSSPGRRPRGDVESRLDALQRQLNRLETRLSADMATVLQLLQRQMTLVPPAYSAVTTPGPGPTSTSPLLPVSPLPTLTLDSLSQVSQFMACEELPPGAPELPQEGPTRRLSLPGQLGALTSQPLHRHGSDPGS

Adrenergic beta1 = conditions: Ricerca radioligand binding and CYP450 panel, at 10 µM, stronger effect = higher value
CYP450 2C19 = conditions: Ricerca radioligand binding and CYP450 panel, at 10 µM, stronger effect = higher value
Sigma 1 = conditions: Ricerca radioligand binding and CYP450 panel, at 10 µM, stronger effect = higher value
Sodium Channel = conditions: Ricerca radioligand binding and CYP450 panel, site 2, at 10 µM, stronger effect = higher value

Question: How did the inhibition (Opiate mu (OP3, MOP)) turn out when `COc1ccc(Oc2c(Cl)cnn(-c3cc(C)cc(C)c3)c2=O)cc1` was run?
Answer: -7% (inactive)

Question: And the inhibition [1]?
Answer: 8% (inactive)

Question: And the inhibition [2]?
Answer: 8% (inactive)

Question: What about the inhibition (Adrenergic alpha1A) of the same molecule?
Answer: 2% (inactive)

Question: What about the inhibition (Adenosine A1) of the same molecule?
Answer: 19% (inactive)

Question: And the inhibition [3]?
Answer: 47% (inactive)

Question: What about the inhibition (Cannabinoid CB1) of the same molecule?
Answer: 25% (inactive)

Question: What about the inhibition [4] of the same molecule?
Answer: 5% (inactive)

Question: What about the inhibition (Histamine H1) of the same molecule?
Answer: 16% (inactive)

Question: And the inhibition (Dopamine D2S)?
Answer: 13% (inactive)

Question: What about the inhibition [5] of the same molecule?
Answer: 0% (inactive)

Question: And the inhibition [6]?
Answer: 11% (inactive)

Question: What about the inhibition (GABAA; Flunitrazepam site) of the same molecule?
Answer: -1% (inactive)

Question: And the inhibition (GABAA; Muscimol site)?
Answer: 4% (inactive)

Question: And the inhibition (Calcium Channel L-Type)?
Answer: 26% (inactive)

Question: What about the inhibition (Nicotinic Acetylcholine) of the same molecule?
Answer: -22% (inactive)

Question: What about the inhibition [7] of the same molecule?
Answer: 53%

Question: What about the inhibition [8] of the same molecule?
Answer: 16% (inactive)

Question: And the inhibition (Adrenergic alpha1B)?
Answer: 3% (inactive)

Question: And the inhibition [9]?
Answer: -3% (inactive)

Question: And the inhibition (Adenosine A2A)?
Answer: 14% (inactive)

Question: And the inhibition [10]?
Answer: 5% (inactive)

Question: What about the inhibition (Prostanoid EP4) of the same molecule?
Answer: 2% (inactive)

Question: And the inhibition [11]?
Answer: -2% (inactive)

Question: And the inhibition (Glutamate NMDA)?
Answer: -3% (inactive)

Question: What about the inhibition [12] of the same molecule?
Answer: 2% (inactive)

Question: And the inhibition [13]?
Answer: 13% (inactive)

Question: What about the inhibition (Adrenergic beta1) of the same molecule?
Answer: 13% (inactive)

Question: And the inhibition (CYP450 2C19)?
Answer: -3% (inactive)

Question: What about the inhibition (Sigma 1) of the same molecule?
Answer: -4% (inactive)

Question: And the inhibition (Sodium Channel)?
Answer: 23% (inactive)
